Here are results for one compound from patent US20260232865A1, “DENDRIMER-BIOADHESIVE POLYMER HYDROGEL NANOGLUE AND USE THEREOF” (The Johns Hopkins University, priority 2016, published 2026).

Common to all, as to assay type: in vivo, rat
In one test the test system is corneal alkali burn. The note with it: for Estimated area of NV / CCT: mean±standard deviation; for Opacity score: median (inter-quartile range); for CCT: rat alkali burn, subconjunctival gel, 1.6 mg of Dex/eye. As for the experimental part: All procedures involving animals conformed with the IACUC research guidelines by the Association for Research in Vision and Ophthalmology Statement for the use of Animals in Ophthalmic and Vision Research and Johns Hopkins University. A total of 57 Lewis rats (7 to 8 weeks of age) were obtained from Harlan Laboratories Inc. (Frederick, MD). All animals weighed between 150 and 200 g, and they were housed at constant temperature (20±1° C.) and humidity (50±5%). They were fed standard rat chow and had access to water ad libitum. All procedures and tests were performed under general anesthesia with intramuscular injection of ketamine 0.9% (Bio-niche Pharma, Lake Forest, IL, USA)/xylazine 0.1% (Phoenix Pharmaceuticals, St. Joseph, MO, USA) and topical proparacaine 0.5% (Sandoz, Holzkirchen, Germany). Corneal alkali burn was generated by applying 0.5N NaOH on cornea. Briefly, sample discs SS-033 0.5 cm in diameter (WESCOR, Logan, Utah, USA) were cut in to 4 quadrants. The quadrant was soaked in 0.5N NaOH for 10 seconds and then placed on central cornea for 15 s. The burn area and the conjunctival sac were immediately irrigated with 30 mL of BSS solution using an eyedrop bottle.
Corneal alkali burn was performed on rats as described in Example 7.
After alkali burn, the animals were randomized for treatment in one of the following three groups: (i) Dendrimer-Dexamethasone conjugates entrapped in injectable, dendrimer-hyaluronic acid photocrosslinked gel with a minimal amount of free dexamethasone (D-Dex group, n=10), (ii) free dexamethasone in injectable, dendrimer-hyaluronic acid photocrosslinked gel (free-dex group, n=10), and (iii) no drug, only injectable, dendrimer-hyaluronic acid photocrosslinked gel, n=10. Both D-Dex and free-Dex groups were treated with equivalent Dex basis present in both D-Dex and free Dex formulations (1.6 mg of Dex/eye). […] The free dexamethasone group received a total of 1.6 mg of free dexamethasone. […] All forms of drugs were incorporated into injectable gel formulations (it is the same gel formulation as of example 4). The gel components are premixed and loaded in to the syringe and crosslinked to form gel using UV exposure. At the time of injection the components are in the form of gel) and injected subconjunctivally using 30-gauge, 0.5 cc insulin syringes.
Animals were assessed at baseline and at the following post-exposure time points: 24 hours, 72 hours, and 7 days. A subset of the animals was also followed up to 14 days.
The central corneal thickness (CCT) and stromal structure analysis were done using anterior chamber optical coherence tomography (OCT) (Bioptigen Envisu R-class OCT, Bioptigen, NC, USA).
Changes in intraocular pressure (IOP) were measured using a handheld tonometer (Icare LAB tonometer, Icare, Finland). The settings R for rat were chosen and three individual measurements of IOP were made for each eye for accuracy.
Corneal opacity was scored by grading the degree of transparency as previously reported by Larkin D F, et al., Clin Exp Immunol., 107:381-391 (1997). The estimated area of neovascularization (NV) was assessed by estimating the radial penetration of the neovascular vessels and their extent in degrees, and by assuming a mean corneal […] of 2.5 mm, so that the maximal area of NV was no more than 2.52π mm^2 (=19.63 mm^2).

A further test deals with IL-6 mRNA. Description: Cytokine mRNA expression in corneal tissue by RT-PCR: IL-6. The note with it: POD7, normalized to healthy controls, mean±SEM. On the procedure:
(§1) For cytokine expression analysis, the corneas (n=10, for each group) were snap frozen in liquid nitrogen and homogenized carefully into tissue powder using pre-cooled (in liquid nitrogen) porcelain mortar and pestles. The total RNA was purified with TRIzol reagent (Life Technologies, Grand Island, NY) following the manufacturer's instruction. 3 μg of total RNA was reverse-transcribed to cDNA using High-capacity cDNA Reverse Transcription System (Life Technologies) according to the manufacturer's instructions. qRT-PCR was performed with fast SYBR Green Master Mix (Life Technologies) by a StepOnePlus Real-Time PCR System (Life Technologies). Rat GAPDH was used to normalize the expression levels of target gene and calculated by the comparative cycle threshold Ct method (2^−(ΔΔCt)).

For a further test, the system named is MCP-1 mRNA. The test is described as follows: Cytokine mRNA expression in corneal tissue by RT-PCR: MCP-1. On the procedure: as §1

Read-outs that look alike come from different tables or passages of the source.

Consider `C[C@@H]1C[C@H]2[C@@H]3CCC4=CC(=O)C=C[C@]4(C)[C@@]3(F)[C@@H](O)C[C@]2(C)[C@@]1(O)C(=O)CO` [Free-Dex, Dexamethasone], for which the “Estimated area of NV” value was 0 ± 0 mm^2 in the test on corneal alkali burn (Baseline); 0 ± 0 mm^2 with corneal alkali burn (POD1); 3.32 ± 1.65 mm^2 in the test on corneal alkali burn (POD3); 3.8 ± 2.89 mm^2 in the test with corneal alkali burn (POD7); 43.32 ± 5.46 mm^2 with corneal alkali burn (POD14). Also, the Opacity score in the test with corneal alkali burn (Baseline, grade 0-4) was 0(0); in the test with corneal alkali burn (POD1, grade 0-4), 3(3); in the test with corneal alkali burn (POD3, grade 0-4), 3.5(1); in the test with corneal alkali burn (POD7, grade 0-4), 1(1); with corneal alkali burn (POD14, grade 0-4), 1(2). Besides, the CCT amounted to 142.86 ± 8.68 μm in the test with corneal alkali burn (Baseline); 304.95 ± 87.23 μm in the test with corneal alkali burn (POD1); 357.71 ± 115.58 μm in the test with corneal alkali burn (POD3); 229.57 ± 91.54 μm in the test with corneal alkali burn (POD7); 226.57 ± 63.67 μm in the test on corneal alkali burn (POD14). The compound further showed a median opacity score in the test with corneal alkali burn (POD3, grade 0-4) of 3.5. Further, the “mean area occupied by neo-vessels” value in the test with corneal alkali burn (POD7 as printed in text, spread not defined) was determined as 3.32±0.34 mm^2. Also, the “IL-6 mRNA levels” value in the test with IL-6 mRNA turned out to be 3.0±0.3. For the same compound, the “MCP-1 mRNA levels significantly lower compared to the positive controls” value in the test with MCP-1 mRNA (POD7, p=0.259) was “not true”. In the test with MCP-1 mRNA (POD14, corneal tissue, normalized to healthy controls, mean±SEM), the “MCP-1 mRNA levels” value was determined as 15.4±3.22.
